# Results: PMC4466095 (Bioorganic & medicinal chemistry, 2014)
# What was measured:
# Assay type in all cases: cell-based
# [1] = biological target: T1, FPR1 (Homo sapiens, UniProt P21462); experiment: Ca2+ mobilization in FPR1-transfected HL-60 cells
# T1 sequence (P21462 1-350): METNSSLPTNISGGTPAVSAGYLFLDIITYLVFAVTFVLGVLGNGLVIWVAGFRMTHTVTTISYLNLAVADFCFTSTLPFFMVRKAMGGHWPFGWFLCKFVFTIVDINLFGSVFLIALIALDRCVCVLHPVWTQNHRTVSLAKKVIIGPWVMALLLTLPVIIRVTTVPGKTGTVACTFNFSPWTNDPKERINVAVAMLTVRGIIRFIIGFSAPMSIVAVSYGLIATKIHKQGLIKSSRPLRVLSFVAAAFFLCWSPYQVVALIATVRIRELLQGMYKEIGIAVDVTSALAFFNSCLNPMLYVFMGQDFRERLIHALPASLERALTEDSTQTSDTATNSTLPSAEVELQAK
# [2] = biological target: T2, FPR2 (Homo sapiens, UniProt P25090); experiment: Ca2+ mobilization in FPR2-transfected HL-60 cells
# T2 sequence (P25090 1-351): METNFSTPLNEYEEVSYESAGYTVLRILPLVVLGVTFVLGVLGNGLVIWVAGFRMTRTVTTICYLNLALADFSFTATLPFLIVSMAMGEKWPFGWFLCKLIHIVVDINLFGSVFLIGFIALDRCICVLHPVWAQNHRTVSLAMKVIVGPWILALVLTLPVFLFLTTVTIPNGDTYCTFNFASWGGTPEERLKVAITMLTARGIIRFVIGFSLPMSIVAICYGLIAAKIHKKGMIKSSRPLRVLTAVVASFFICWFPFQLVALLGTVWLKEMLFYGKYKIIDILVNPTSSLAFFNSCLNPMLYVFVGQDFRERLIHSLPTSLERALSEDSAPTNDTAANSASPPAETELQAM
# [3] = test system: mouse neutrophils; experiment: Ca2+ mobilization in mouse neutrophils; details: Neutrophil, read-out: EC50, Ca2+ mobilization, Mouse PMN
# [4] = test system: human neutrophils; experiment: Ca2+ mobilization in human neutrophils
Structure (SMILES),Ca2+ mobilization in FPR1-HL60 cells (in words) [1],activation of FPR2 in FPR2-HL60 cells and in human neutrophils (in words) [2],EC50 [3] [nM],difference in potency between enantiomers in activation of human neutrophils ([4]; (S)-9a vs (R)-9a) [fold],"Efficacy, Ca2+ mobilization, Human PMN (w/o probenecid) ([4]; without probenecid, normalized to 5 nM fMLF = 100%) [%]",Ca2+ mobilization in human neutrophils (in words) [4]
"COc1ccc(NC(=O)N[C@@H](Cc2c[nH]c3ccccc23)C(=O)NCC2(c3cccnc3)CCCCC2)cc1 [(S)-9d, (S)-3-(1H-Indol-3-yl)-2-[3-(4-methoxyphenyl)ureido]-N-[[1-(3-pyridinyl)cyclohexyl]methyl]propanamide]",unable to stimulate Ca^2+ mobilization,able to activate FPR2,3900 ± 1500,–,–,–
"COc1ccc(NC(=O)N[C@@H](Cc2c[nH]c3ccccc23)C(=O)NCC2(c3ccc(OC)cn3)CCCCC2)cc1 [(S)-9a, (S )-3-(1H-indol-3-yl)-2-[3-(4-methoxyphenyl)ureido]-N -[[1-(5-methoxy-2-pyridinyl)cyclohexyl]methyl]propanamide]",stimulated Ca^2+ mobilization,–,240 ± 70,> 14,100,–
"COc1ccc(NC(=O)N[C@H](Cc2c[nH]c3ccccc23)C(=O)NCC2(c3cccnc3)CCCCC2)cc1 [(R)-9d, (R)-3-(1H-Indol-3-yl)-2-[3-(4-methoxyphenyl)ureido]-N-[[1-(3-pyridinyl)cyclohexyl]methyl]propanamide]",–,–,2100 ± 580,–,–,not able to induce Ca^2+ mobilization
"COc1ccc(NC(=O)N[C@@H](Cc2c[nH]c3ccccc23)C(=O)NCC2(c3ccc(F)cc3)CCCCC2)cc1 [(S)-9f, (S)-N-[[1-(4-Fluorophenyl)cyclohexyl]methyl]-3-(1H-indol-3-yl)-2-[3-(4-methoxyphenyl)ureido]propanamide]",unable to stimulate Ca^2+ mobilization,active,2300 ± 350,–,–,only in the presence of probenecid
"COc1ccc(NC(=O)N[C@H](Cc2c[nH]c3ccccc23)C(=O)NCC2(c3ccc(F)cc3)CCCCC2)cc1 [(R)-9f, (R)-N-[[1-(4-Fluorophenyl)cyclohexyl]methyl]-3-(1H-indol-3-yl)-2-[3-(4-methoxyphenyl)ureido]propanamide]",–,inactive,2500 ± 420,–,–,not able to induce Ca^2+ mobilization
"COc1ccc(NC(=O)N[C@@H](Cc2c[nH]c3ccccc23)C(=O)NCC2(c3ccccc3)CCCCC2)cc1 [(S)-9c, (S)-3-(1H-Indol-3-yl)-2-[3-(4-methoxyphenyl)ureido]-N-[(1-phenylcyclohexyl)methyl]propanamide]",–,–,2500 ± 610,–,–,not able to induce Ca^2+ mobilization
COc1ccc(NC(=O)N[C@H](Cc2c[nH]c3ccccc23)C(=O)NCC2(c3ccnc(F)c3)CCCCC2)cc1 [(R)-9b],–,inactive,2300 ± 730,–,–,not able to induce Ca^2+ mobilization
"COc1ccc(NC(=O)N[C@@H](Cc2c[nH]c3ccccc23)C(=O)NCC2(c3ccccn3)CCCCC2)cc1 [(S)-9e, (S)-3-(1H-Indol-3-yl)-2-[3-(4-methoxyphenyl)ureido]-N-[[1-(2-pyridinyl)cyclohexyl]methyl]propanamide]",stimulated Ca^2+ mobilization,–,2800 ± 640,–,–,–
"COc1ccc(NC(=O)N[C@H](Cc2c[nH]c3ccccc23)C(=O)NCC2(c3ccccc3)CCCCC2)cc1 [(R)-9c, (R)-3-(1H-Indol-3-yl)-2-[3-(4-methoxyphenyl)ureido]-N-[(1-phenylcyclohexyl)methyl]propanamide]",unable to stimulate Ca^2+ mobilization,–,3800 ± 1300,–,–,only in the presence of probenecid
"COc1ccc(NC(=O)N[C@H](Cc2c[nH]c3ccccc23)C(=O)NCC2(c3ccc(OC)cn3)CCCCC2)cc1 [(R)-9a, (R)-3-(1H-Indol-3-yl)-2-[3-(4-methoxyphenyl)ureido]-N-[[1-(5-methoxy-2-pyridinyl)cyclohexyl]methyl]propanamide]",–,–,4900 ± 1400,–,–,–
"COc1ccc(NC(=O)N[C@H](Cc2c[nH]c3ccccc23)C(=O)NCC2(c3ccccn3)CCCCC2)cc1 [(R)-9e, (R)-3-(1H-Indol-3-yl)-2-[3-(4-methoxyphenyl)ureido]-N-[[1-(2-pyridinyl)cyclohexyl]methyl]propanamide]",–,–,1000 ± 270,–,–,–
COc1ccc(NC(=O)N[C@@H](Cc2c[nH]c3ccccc23)C(=O)NCC2(c3ccnc(F)c3)CCCCC2)cc1 [(S)-9b],unable to stimulate Ca^2+ mobilization,active,1700 ± 440,–,–,–
